Test results published in patent US7514445B2, “Heteroaryl amines as glycogen synthase kinase 3β inhibitors (GSK3 inhibitors)” (Janssen Pharmaceutica N.V., priority 2001, dated 2009).

Target: GSK3β (Homo sapiens, UniProt P49841)
Test: GSK3beta assay (SPA, phosphorylation of biotinylated phosphorylated CREB peptide, ATP-P33)
Type: biochemical
Settings: -log IC50 (M); 25° C., 19 nM GSK3β, 5 μM biotinylated phosphorylated CREB peptide, 1 μM ATP, one hour
Protocol: GSK3beta assays were performed at 25° C. in a 100 μl reaction volume of 25 mM Tris (pH 7.4) containing 10 mM MgCl2, 1 mM DTT, 0.1 mg/ml BSA, 5% glycerol and containing 19 nM GSK3β, 5 μM biotinylated phosphorylated CREB peptide, 1 μM ATP, 2 nM ATP-P^33 and a suitable amount of a test compound of formula (I) or (I′). After one hour, the reaction was terminated by adding 70 μl of Stop mix (1 mM ATP, 18 mg/ml streptavidin coated PVT SPA bead pH 11.0). The beads to which the phosphorylated CREB peptide is attached were allowed to settle for 30 minutes and the radioactivity of the beads was counted in a microtiterplate scintillation counter and compared with the results obtained in a control experiment (without the presence of a test compound) in order to determine the percentage of GSK3β, inhibition. The IC50 value, i.e. the concentration (M) of the test compound at which 50% of GSK3, is inhibited, was calculated from the dose response curve obtained by performing the above-described GSK3β assay in the presence of different amounts of the test compound.
Table 5 lists pIC50 values (-log IC50 (M)) obtained in the above-described test for the present compounds.

Chain of GSK3β (P49841 whole entry, species assumed): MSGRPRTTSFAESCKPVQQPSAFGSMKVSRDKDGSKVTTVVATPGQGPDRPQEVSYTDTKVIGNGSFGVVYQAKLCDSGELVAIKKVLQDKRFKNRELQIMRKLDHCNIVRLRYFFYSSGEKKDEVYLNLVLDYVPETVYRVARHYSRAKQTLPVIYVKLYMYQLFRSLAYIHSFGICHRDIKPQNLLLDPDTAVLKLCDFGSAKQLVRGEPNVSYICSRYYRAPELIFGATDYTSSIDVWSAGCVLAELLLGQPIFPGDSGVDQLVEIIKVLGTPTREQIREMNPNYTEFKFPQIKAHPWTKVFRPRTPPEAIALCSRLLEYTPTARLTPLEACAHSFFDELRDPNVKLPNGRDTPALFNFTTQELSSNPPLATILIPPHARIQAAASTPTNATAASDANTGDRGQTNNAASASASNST

`Cc1cc(C)c(Nc2ccnc(Nc3ccc4[nH]ncc4c3)n2)c(C)c1` [Compound 2, N^2-(1H-indazol-5-yl)-N^4-(2,4,6-trimethylphenyl)-2,4-pyrimidinediamine] showed an IC50 of 5.25e-07 M.
For `N#Cc1ccc(Nc2nccc(C(=O)N3CCNCC3)n2)cc1OCc1ccccc1` [Compound 4], the IC50 was 2.95e-06 M.
With `Cn1ccnc1-c1ccnc(Nc2ccc(C#N)c(OCc3ccccc3)c2)n1` [Compound 6, 4-[[4-(1-methyl-1H-imidazol-2-yl)-2-pyrimidinyl]amino]-2-(phenylmethoxy)-benzonitrile] the IC50 was 9.77e-08 M.
For `Cc1cc(C)c(Nc2ccnc(Nc3ccc4c(c3)OCO4)n2)c(C)c1` [Compound 17, N^2-benzo[1,3]dioxol-5-yl-N^4(2,4,6-trimethyl-phenyl)-2,4-pyrimidinediamine], the IC50 was 5.01e-06 M.
With `Cc1cc(C)c(Nc2ccnc(Nc3ccc4ncccc4c3)n2)c(C)c1` [Compound 20, N^2-quinolin-6-yl-N-4-(2,4,6-trimethyl-phenyl)-2,4-pyrimidinediamine] the IC50 was 3.63e-06 M.
`N#Cc1ccc(Nc2nccc(NCc3cccs3)n2)cc1` [Compound 22, 4-[4-[(thiophen-2-ylmethyl)-amino]-pyrimidin-2-ylamino]-benzonitrile] gave an IC50 of 1.82e-06 M.
Work on `CC1(C)OCC(CNc2ccnc(Nc3ccc(C#N)cc3)n2)O1` (stereo not shown) [Compound 24] yielded an IC50 of 4.37e-06 M.
With `CCN1CCCC1CNc1ccnc(Nc2ccc(C#N)cc2)n1` (stereo not shown) [Compound 25] the IC50 was 1.91e-06 M.
Molecule `N#Cc1ccc(Nc2nccc(NCc3ccco3)n2)cc1` [Compound 26, 4-[4-[(furan-2-ylmethyl)-amino]-pyrimidin-2-ylamino]-benzonitrile] has an IC50 of 1.55e-06 M.
In the case of `Cn1ccnc1-c1ccnc(Nc2ccc(C#N)cc2)n1` [Compound 33, 4-[[4-(1-methyl-1H-imidazol-2-yl)-2-pyrimidinyl]amino]-benzonitrile], the IC50 is reported as 7.76e-08 M.
